Key:
[1] = test system: HSV-I infected cell; assay: Viral plaque reduction in HSV-I infected cells; format: cell-based; conditions: for viral plaque formation decreased: virally infected cells (Example 1)
Text: The primary end points were the levels of IL-8 and IL-1 after treatment with an immunostimulator, pyruvate and the combination of pyruvate and α-ketoisovalerate. […] IL-8 activates neutrophils to increase their numbers at the infected site. […] IL-1 increases inflammation and decreases healing times. […] Viral plaques are a direct measure of viral numbers in infected cells.

[2] = One week open label home-use trial of sodium pyruvate+saline nasal sprays (Example 5); format: in vivo, human
Text: Thirty-nine (39) subjects who were regular nasal spray users due to chronic sinusitis or allergic rhinitis and other sinus diseases were recruited for a one week open label, in home-use trial. Allergic rhinitis and other sinus diseases result in the elevation of certain inflammatory components and the concurrent down regulation of some other inflammatory components. When this happens, infections can occur. The ability to up-regulate these immune components helps balance the nasal immune system to inhibit infections and minimize injury to surrounding tissues. Six (6) different sodium pyruvate+saline combination nasal sprays, based on concentrations of saline and sodium pyruvate, were administered to the subjects, and each of the test products were used by at least six subjects. The subjects used the test nasal sprays at home (two to three sprays; two or three times a day) for seven days, in place of their regular nasal spray.
Prior to, and at the end of the study period, the subjects' nostrils were examined for mucosal fragility, lesions, erythema, and edema using a rhinoscope.
Thirty-eight subjects completed the study. […] The test formula ranged from 0.5 mM solutions to 20 mM solutions. […] In this case we delivered the 20 mM solution nasal solution with sodium pyruvate. […]

[3] = test system: total protein, elastase, IL-6, IL-8, TNF-α; assay: Inhaled sodium pyruvate in cystic fibrosis safety study: sputum inflammatory biomarkers; format: in vivo, human; conditions: for total proteins, elastase, IL-6, IL-8, and TNF-α: CF subjects
Description: All of the enrolled and dosed subjects were able to provide sputum samples for analysis before and after exposure to study drug (sodium pyruvate for inhalation at 0.5, 1.5, and 5.0 mM levels). The subjects were given 5 ml samples to inhale. Specimens were of good quality for the planned assays.
Samples were divided into two main aliquots after processing. The first aliquot was left untreated to be able to assay for the activity of free elastase. The second aliquot was treated with protease inhibitors pheylmethanesulfonylfluoride (PMSF) and ethylenediamine tetraacetic acid (EDTA) to stop any degradation of the cytokines of interest (IL-6, IL-8, IL-10, IL-17, and IL-23) and total protein.
For IL-10, IL-17 and IL-23, levels on sputum were at or below the limit of detection for the assays (7, 2 and 20 pg/mL respectively). For the other markers (total protein, elastase, IL-6, IL-8, TNF-α) levels detected where within those typically found in cystic fibrosis (CF) patients.

[4] = test system: HSV-1, HSV-2 and various rhinoviruses; assay: Tissue culture studies, viral plaques; format: cell-based; conditions: 10-40 mM concentrations
Description: (§1) This medication is an anti-viral drug used to treat infants and young children who have a severe lung infection caused by a certain virus (respiratory syncytial virus-RSV). Nearly all children become infected with this virus before they are 3 years old. […] This medication is used to treat severe RSV infections that need treatment in a hospital. This medication is given by continuous inhalation, usually for 12 to 18 hours daily for 3 to 7 days or as directed by the doctor. A special machine (small-particle aerosol generator) is used to make a mist, which is then inhaled through the mouth or nose. Chest soreness may occur. Redness/irritation of the nasal cavities and eye or eyelid may also occur. When five (5) mls. of a 10 mM solution of pyruvate was used prior to the administration of this medication; the patient reported that the irritation and chest soreness was eliminated. […] Tissue culture studies with HSV-1, HSV-2 and various rhinoviruses, have shown that 10-40 mM concentrations of pyruvate reduced viral plaques by 40-60% by increasing the synthesis of various cytokines. The combination of various antivirals with pyruvate totally eliminated the virus infection in cells. The inhalation of 5.0 mls of a 20 mM solution of sodium pyruvate used by itself reduced viral infections in a patient with sinusitis by 50%.

[5] = test system: viral infections; assay: Inhaled sodium pyruvate in a patient with sinusitis, viral infections; format: in vivo, human; conditions: inhalation of 5.0 mls of a 20 mM solution, used by itself; one patient
Description: as §1

SMILES	Percentage of viral plaque reduction in virally infected cells ([1]; Acyclovir alone, therapeutic dose) [%]	viral plaque formation decreased [1] [%]	effectiveness rated by the patients compared to the 20-40 mM solutions ([2]; 0.5 mM to 5 mM solutions)	rating by the patients ([2]; 40 mM solution)	levels of TNF-α ([3]; inhalation at 0.5 mM)	levels of white blood cells, elastase, IL-8, IL-6 ([3]; inhalation at 0.5 mM)	total proteins, elastase, IL-6, IL-8, and TNF-α ([3]; inhalation of 5 ml of 0.5 mM)	total proteins, elastase, IL-6, IL-8, and TNF-α ([3]; inhalation of 5 ml of 5 mM or higher)	levels of white blood cells elastase, IL-8, IL-6, IL-10 and TNF-α ([3]; inhalation of more than 5 mM in humans)	viral plaques reduced [4]	viral infections reduced [5] [%]
Nc1nc2c(ncn2COCCO)c(=O)[nH]1 [Acyclovir, 9-[(2-hydroxyethyloxy)methyl]guanine]	40	60	–	–	–	–	–	–	–	–	–
CC(=O)C(=O)[O-].[Na+] [sodium pyruvate]	–	50	non-effective to less effective	favorably rated	did not increase	reduced	reduced	increased	increased	40-60%	50

Reference: patent publication US9675569B2, “Method for treating a pulmonary disease state in mammals by up regulating indigenous in vivo levels of inflammatory agents in mammalian cells” (priority 2012, dated 2017)
